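Growth conditions: 96-well plates. Treatment: test compound, 48 hours, 5 concentrations. Analysis: linear interpolation between bracketing concentrations; unreached endpoints set to highest concentration. At the GI50, growth is halved. TGI is the concentration that stops growth completely.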
Assays:
Test in all cases: NCI-60 cell line screen, 48 h
[1] = test system: MCF7 breast
[2] = test system: SK-MEL-5 melanoma
[3] = test system: OVCAR-5 ovarian
[4] = test system: SW-620 colon
[5] = test system: HOP-62 NSCLC
[6] = test system: HL-60(TB) leukemia
[7] = test system: SF-295 CNS
[8] = test system: NCI-H460 lung
[9] = test system: MALME-3M melanoma
[10] = test system: LOX IMVI melanoma
[11] = test system: IGROV1 ovarian
[12] = test system: HT29 colon
[13] = test system: NCI-H226 lung
[14] = test system: MDA-MB-231 breast
[15] = test system: A498 renal
[16] = test system: SR leukemia
[17] = test system: HCC-2998 colon
[18] = test system: OVCAR-3 ovarian
[19] = test system: COLO 205 colon
[20] = test system: U251 CNS
[21] = test system: RXF 393 renal
[22] = test system: DU-145 prostate
[23] = test system: 786-0 renal
[24] = test system: UACC-257 melanoma
[25] = test system: T-47D breast
[26] = test system: SNB-19 CNS
[27] = test system: CCRF-CEM leukemia
[28] = test system: KM12 colon
[29] = test system: SK-OV-3 ovarian
[30] = test system: NCI/ADR-RES ovarian
[31] = test system: SN12C renal
[32] = test system: SF-268 CNS
[33] = test system: MDA-MB-435
[34] = test system: SF-539 CNS
[35] = test system: RPMI-8226 leukemia
[36] = test system: NCI-H522 lung
[37] = test system: M14 melanoma
[38] = test system: TK-10 renal
[39] = test system: OVCAR-8 ovarian
[40] = test system: A549 NSCLC
[41] = test system: SNB-75 CNS
[42] = test system: SK-MEL-28 melanoma
[43] = test system: ACHN renal
[44] = test system: SK-MEL-2 melanoma
[45] = test system: OVCAR-4 ovarian
[46] = test system: MOLT-4 leukemia
[47] = test system: HOP-92 NSCLC
[48] = test system: HCT-15 colon
[49] = test system: CAKI-1 renal
[50] = test system: BT-549 breast
[51] = test system: HCT-116 colon
[52] = test system: K-562 leukemia
[53] = test system: HS 578T breast
[54] = test system: UO-31 renal
[55] = test system: EKVX NSCLC
[56] = test system: UACC-62 melanoma
[57] = test system: NCI-H23 lung
[58] = test system: PC-3 prostate

## Cc1noc(C)c1-c1cc(O)cc(C(O)c2ccccc2)c1 (configuration not stated)
[1]
  GI50: 1.7 µM
  TGI: > 100 µM
[2]
  GI50: 5.95 µM
  TGI: 29.5 µM
[3]
  GI50: 31.8 µM
  TGI: > 100 µM
[4]
  GI50: 24.6 µM
  TGI: > 100 µM
[5]
  GI50: 4.89 µM
  TGI: > 100 µM
[6]
  GI50: 2.17 µM
  TGI: 22.7 µM
[7]
  GI50: 7.31 µM
  TGI: > 100 µM
[8]
  GI50: 25.1 µM
  TGI: > 100 µM
[9]
  GI50: 28.9 µM
  TGI: > 100 µM
[10]
  GI50: 3.6 µM
  TGI: 80.5 µM
[11]
  GI50: 23.2 µM
  TGI: > 100 µM
[12]
  GI50: 4.54 µM
  TGI: > 100 µM
[13]
  GI50: 21.3 µM
  TGI: > 100 µM
[14]
  GI50: 3.92 µM
  TGI: > 100 µM
[15]
  GI50: 2.6 µM
  TGI: 20.3 µM
[16]
  GI50: 1.01 µM
  TGI: > 100 µM
[17]
  GI50: 8.55 µM
  TGI: > 100 µM
[18]
  GI50: 6.65 µM
  TGI: > 100 µM
[19]
  GI50: 5.25 µM
  TGI: > 100 µM
[20]
  GI50: 15 µM
  TGI: > 100 µM
[21]
  GI50: 4.58 µM
  TGI: > 100 µM
[22]
  GI50: 69.5 µM
  TGI: > 100 µM
[23]
  GI50: 27.1 µM
  TGI: > 100 µM
[24]
  GI50: 4.66 µM
  TGI: > 100 µM
[25]
  GI50: 7.7 µM
  TGI: > 100 µM
[26]
  GI50: 5.69 µM
  TGI: > 100 µM
[27]
  GI50: 14.8 µM
  TGI: > 100 µM
[28]
  GI50: 8.2 µM
  TGI: > 100 µM
[29]
  GI50: 7.01 µM
  TGI: > 100 µM
[30]
  GI50: 6.32 µM
  TGI: > 100 µM
[31]
  GI50: 17.2 µM
  TGI: > 100 µM
[32]
  GI50: 39.3 µM
  TGI: > 100 µM
[33]
  GI50: 3.48 µM
  TGI: > 100 µM
[34]
  GI50: 4.56 µM
  TGI: > 100 µM
[35]
  GI50: 1.94 µM
  TGI: 9.64 µM
[36]
  GI50: 27 µM
  TGI: > 100 µM
[37]
  GI50: 4.48 µM
  TGI: > 100 µM
[38]
  GI50: 3.99 µM
  TGI: > 100 µM
[39]
  GI50: 8.33 µM
  TGI: > 100 µM
[40]
  GI50: 22.4 µM
  TGI: > 100 µM
[41]
  GI50: 0.423 µM
  TGI: > 100 µM
[42]
  GI50: 9.15 µM
  TGI: > 100 µM
[43]
  GI50: 4.76 µM
  TGI: > 100 µM
[44]
  GI50: 23.5 µM
  TGI: > 100 µM
[45]
  GI50: 6.35 µM
  TGI: > 100 µM
[46]
  GI50: 17.9 µM
  TGI: 80.7 µM
[47]
  GI50: 1.02 µM
  TGI: 72.9 µM
[48]
  GI50: 3.52 µM
  TGI: > 100 µM
[49]
  GI50: 4.35 µM
  TGI: > 100 µM
[50]
  GI50: 28.2 µM
  TGI: > 100 µM
[51]
  GI50: 7.08 µM
  TGI: > 100 µM
[52]
  GI50: 8.69 µM
  TGI: > 100 µM
[53]
  GI50: 1.93 µM
  TGI: 90.7 µM
[54]
  GI50: 1.08 µM
  TGI: > 100 µM

## Oc1ccc(O)c(-c2cc(-c3ccccc3)nn2-c2ccccc2)c1
[1]
  GI50: 6.55 µM
  TGI: > 100 µM
[2]
  GI50: 30.7 µM
  TGI: > 100 µM
[3]
  GI50: 10.6 µM
  TGI: 27 µM
[4]
  GI50: 26 µM
  TGI: > 100 µM
[5]
  GI50: 16.8 µM
  TGI: 32.3 µM
[6]
  GI50: 24.9 µM
  TGI: > 100 µM
[7]
  GI50: 28.5 µM
  TGI: > 100 µM
[8]
  GI50: 24.8 µM
  TGI: > 100 µM
[55]
  GI50: 16.9 µM
  TGI: 37.7 µM
[10]
  GI50: 10.2 µM
  TGI: 25 µM
[11]
  GI50: > 100 µM
  TGI: > 100 µM
[12]
  GI50: 73.9 µM
  TGI: > 100 µM
[13]
  GI50: 18.7 µM
  TGI: 51.4 µM
[14]
  GI50: 30.3 µM
  TGI: > 100 µM
[18]
  GI50: 22.8 µM
  TGI: > 100 µM
[19]
  GI50: 24.9 µM
  TGI: > 100 µM
[20]
  GI50: 5.7 µM
  TGI: 19.9 µM
[21]
  GI50: 31.3 µM
  TGI: > 100 µM
[56]
  GI50: 11.9 µM
  TGI: 44.9 µM
[23]
  GI50: 12.2 µM
  TGI: 25.2 µM
[24]
  GI50: 18 µM
  TGI: 52.1 µM
[57]
  GI50: 14.3 µM
  TGI: 32.5 µM
[25]
  GI50: 19.6 µM
  TGI: 98.4 µM
[26]
  GI50: 23.9 µM
  TGI: > 100 µM
[28]
  GI50: 19.6 µM
  TGI: > 100 µM
[30]
  GI50: 11.5 µM
  TGI: 29.7 µM
[31]
  GI50: 17 µM
  TGI: 45 µM
[32]
  GI50: 16.4 µM
  TGI: 64.8 µM
[33]
  GI50: 18.4 µM
  TGI: > 100 µM
[36]
  GI50: 31 µM
  TGI: > 100 µM
[37]
  GI50: 12.4 µM
  TGI: 25.4 µM
[38]
  GI50: 14 µM
  TGI: 71 µM
[39]
  GI50: 17.2 µM
  TGI: 74 µM
[40]
  GI50: 17.3 µM
  TGI: 80.9 µM
[42]
  GI50: 40.8 µM
  TGI: > 100 µM
[43]
  GI50: 14.4 µM
  TGI: 29.7 µM
[44]
  GI50: 34 µM
  TGI: > 100 µM
[46]
  GI50: 60.5 µM
  TGI: > 100 µM
[47]
  GI50: 88.9 µM
  TGI: > 100 µM
[48]
  GI50: 17 µM
  TGI: 42.6 µM
[49]
  GI50: 30.6 µM
  TGI: > 100 µM
[50]
  GI50: 13.4 µM
  TGI: 33.7 µM
[51]
  GI50: 9.71 µM
  TGI: 21.8 µM
[52]
  GI50: 21.7 µM
  TGI: > 100 µM
[53]
  GI50: 19.6 µM
  TGI: 68 µM
[54]
  GI50: 38.6 µM
  TGI: > 100 µM
[58]
  GI50: 16.7 µM
  TGI: > 100 µM

Source: PubChem BioAssay (NCI)
